pIC50: −log10 of the molar value.
System: 266295-075-R-J1-PDC spheroid viability
Assay: Anticancer human tumor 266295-075-R-J1-PDC patient-derived head and neck squamous carcinoma cell line growth inhibition [POLQ]
Conditions: spheroids with HUVEC and MSC; for pIC50: curve of first compound; for viability, T/C: stronger effect = lower value
Summary of the method: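 Complex spheroid viability model combining PDC tumour cells with endothelial (HUVEC) and MSC stromal cells. Novobiocin, ART-558 or RP6685 were tested singly and in combination with standard and investigational anticancer drugs. Each was titrated in half-log steps from near clinical Cmax, or from 10 microM where Cmax was unknown.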

[1] = second compound 0.0316 µM, first compound 0.0316 µM
[2] = second compound 0.0316 µM, first compound 0.1 µM
[3] = second compound 0.0316 µM, first compound 0.316 µM
[4] = second compound 0.0316 µM, first compound 1 µM
[5] = second compound 0.0316 µM, first compound 3.16 µM
[6] = second compound 0.0316 µM, first compound 10 µM
[7] = second compound 0.1 µM, first compound 0.0316 µM
[8] = second compound 0.1 µM, first compound 0.1 µM
[9] = second compound 0.1 µM, first compound 0.316 µM
[10] = second compound 0.1 µM, first compound 1 µM
[11] = second compound 0.1 µM, first compound 3.16 µM
[12] = second compound 0.1 µM, first compound 10 µM
[13] = second compound 0.316 µM, first compound 0.0316 µM
[14] = second compound 0.316 µM, first compound 0.1 µM
[15] = second compound 0.316 µM, first compound 0.316 µM
[16] = second compound 0.316 µM, first compound 1 µM
[17] = second compound 0.316 µM, first compound 3.16 µM
[18] = second compound 0.316 µM, first compound 10 µM
[19] = second compound 1 µM, first compound 0.0316 µM
[20] = second compound 1 µM, first compound 0.1 µM
[21] = second compound 1 µM, first compound 0.316 µM
[22] = second compound 1 µM, first compound 1 µM
[23] = second compound 1 µM, first compound 3.16 µM
[24] = second compound 1 µM, first compound 10 µM
[25] = second compound 3.16 µM, first compound 0.0316 µM
[26] = second compound 3.16 µM, first compound 0.1 µM
[27] = second compound 3.16 µM, first compound 0.316 µM
[28] = second compound 3.16 µM, first compound 1 µM
[29] = second compound 3.16 µM, first compound 3.16 µM
[30] = second compound 3.16 µM, first compound 10 µM
[31] = second compound 10 µM, first compound 0.0316 µM
[32] = second compound 10 µM, first compound 0.1 µM
[33] = second compound 10 µM, first compound 0.316 µM
[34] = second compound 10 µM, first compound 1 µM
[35] = second compound 10 µM, first compound 3.16 µM
[36] = second compound 10 µM, first compound 10 µM
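Note: spheroids exposed to compounds for seven days before readout.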

## COc1ccc([C@@H](O)c2cc(-c3ncnc4cc(N5CCOCC5)ccc34)c(F)cc2Cl)nn1 + Cc1cccc(N(C)C(=O)C2C(O)CCN2c2nc(C)cc(C(F)(F)F)c2C#N)c1
Second compound 0.0316 µM
  pIC50: 5.40
Second compound 0.1 µM
  pIC50: 5.61
Second compound 0.316 µM
  pIC50: 5.58
Second compound 1 µM
  pIC50: 5.57
Second compound 3.16 µM
  pIC50: 5.40
Second compound 10 µM
  pIC50: 5.25
[1]
  viability, T/C: 102%
[2]
  viability, T/C: 82.1%
[3]
  viability, T/C: 73.5%
[4]
  viability, T/C: 73.9%
[5]
  viability, T/C: 47.3%
[6]
  viability, T/C: 40.5%
[7]
  viability, T/C: 90.2%
[8]
  viability, T/C: 86.5%
[9]
  viability, T/C: 81.5%
[10]
  viability, T/C: 71%
[11]
  viability, T/C: 43%
[12]
  viability, T/C: 39.9%
[13]
  viability, T/C: 101%
[14]
  viability, T/C: 112%
[15]
  viability, T/C: 91.4%
[16]
  viability, T/C: 62.7%
[17]
  viability, T/C: 53.2%
[18]
  viability, T/C: 38.9%
[19]
  viability, T/C: 81.8%
[20]
  viability, T/C: 94.2%
[21]
  viability, T/C: 69.3%
[22]
  viability, T/C: 76.6%
[23]
  viability, T/C: 45.3%
[24]
  viability, T/C: 39.1%
[25]
  viability, T/C: 85.3%
[26]
  viability, T/C: 80.9%
[27]
  viability, T/C: 76%
[28]
  viability, T/C: 66.2%
[29]
  viability, T/C: 53.3%
[30]
  viability, T/C: 36.5%
[31]
  viability, T/C: 115%
[32]
  viability, T/C: 92.4%
[33]
  viability, T/C: 89%
[34]
  viability, T/C: 69%
[35]
  viability, T/C: 53.7%
[36]
  viability, T/C: 44.8%

## O=C(Nc1ccc(O)c(NS(=O)(=O)c2ccc(F)cc2)c1)c1ccc(-c2ccccc2)cc1 + Nc1ccc(C#CCN(C(=O)Cc2ncc(C(F)(F)F)cc2C(F)(F)F)c2ccc(F)cc2)nn1
Second compound 0.0316 µM
  pIC50: < 5.00
Second compound 0.1 µM
  pIC50: < 5.00
Second compound 0.316 µM
  pIC50: < 5.00
Second compound 1 µM
  pIC50: < 5.00
Second compound 3.16 µM
  pIC50: < 5.00
Second compound 10 µM
  pIC50: < 5.00
[1]
  viability, T/C: 118%
[2]
  viability, T/C: 105%
[3]
  viability, T/C: 96.8%
[4]
  viability, T/C: 114%
[5]
  viability, T/C: 135%
[6]
  viability, T/C: 87.8%
[7]
  viability, T/C: 98.3%
[8]
  viability, T/C: 123%
[9]
  viability, T/C: 86.3%
[10]
  viability, T/C: 118%
[11]
  viability, T/C: 131%
[12]
  viability, T/C: 94.7%
[13]
  viability, T/C: 103%
[14]
  viability, T/C: 113%
[15]
  viability, T/C: 123%
[16]
  viability, T/C: 114%
[17]
  viability, T/C: 130%
[18]
  viability, T/C: 106%
[19]
  viability, T/C: 101%
[20]
  viability, T/C: 109%
[21]
  viability, T/C: 83.5%
[22]
  viability, T/C: 109%
[23]
  viability, T/C: 131%
[24]
  viability, T/C: 91.9%
[25]
  viability, T/C: 94.4%
[26]
  viability, T/C: 98%
[27]
  viability, T/C: 91%
[28]
  viability, T/C: 99.7%
[29]
  viability, T/C: 111%
[30]
  viability, T/C: 106%
[31]
  viability, T/C: 87.9%
[32]
  viability, T/C: 82.4%
[33]
  viability, T/C: 102%
[34]
  viability, T/C: 105%
[35]
  viability, T/C: 94.3%
[36]
  viability, T/C: 87.9%

## CC(C)n1c(=O)n(C)c2cnc3cc(F)c(-c4ccc(OCCCN5CCCCC5)nc4)cc3c21 + Nc1ccc(C#CCN(C(=O)Cc2ncc(C(F)(F)F)cc2C(F)(F)F)c2ccc(F)cc2)nn1
Second compound 0.0316 µM
  pIC50: < 5.00
Second compound 0.1 µM
  pIC50: < 5.00
Second compound 0.316 µM
  pIC50: < 5.00
Second compound 1 µM
  pIC50: < 5.00
Second compound 3.16 µM
  pIC50: < 5.00
Second compound 10 µM
  pIC50: < 5.00
[1]
  viability, T/C: 105%
[2]
  viability, T/C: 99.3%
[3]
  viability, T/C: 104%
[4]
  viability, T/C: 106%
[5]
  viability, T/C: 82.8%
[6]
  viability, T/C: 76.3%
[7]
  viability, T/C: 93.8%
[8]
  viability, T/C: 103%
[9]
  viability, T/C: 88%
[10]
  viability, T/C: 80.6%
[11]
  viability, T/C: 96%
[12]
  viability, T/C: 64.5%
[13]
  viability, T/C: 110%
[14]
  viability, T/C: 105%
[15]
  viability, T/C: 90.2%
[16]
  viability, T/C: 91.3%
[17]
  viability, T/C: 89.9%
[18]
  viability, T/C: 66.7%
[19]
  viability, T/C: 93.5%
[20]
  viability, T/C: 114%
[21]
  viability, T/C: 99.4%
[22]
  viability, T/C: 90%
[23]
  viability, T/C: 82.2%
[24]
  viability, T/C: 65.3%
[25]
  viability, T/C: 121%
[26]
  viability, T/C: 118%
[27]
  viability, T/C: 103%
[28]
  viability, T/C: 96.3%
[29]
  viability, T/C: 92.4%
[30]
  viability, T/C: 87.9%
[31]
  viability, T/C: 96.5%
[32]
  viability, T/C: 87.9%
[33]
  viability, T/C: 118%
[34]
  viability, T/C: 93.3%
[35]
  viability, T/C: 66.4%
[36]
  viability, T/C: 71.8%

## CC[C@@]1(O)C(=O)OCc2c1cc1n(c2=O)Cc2cc3c(CN(C)C)c(O)ccc3nc2-1 + Nc1ccc(C#CCN(C(=O)Cc2ncc(C(F)(F)F)cc2C(F)(F)F)c2ccc(F)cc2)nn1
Second compound 0.0316 µM
  pIC50: < 7.00
Second compound 0.1 µM
  pIC50: < 7.00
Second compound 0.316 µM
  pIC50: < 7.00
Second compound 1 µM
  pIC50: < 7.00
Second compound 3.16 µM
  pIC50: < 7.00
Second compound 10 µM
  pIC50: < 7.00
Second compound 0.0316 µM, first compound 0.000316 µM
  viability, T/C: 98.9%
Second compound 0.0316 µM, first compound 0.001 µM
  viability, T/C: 105%
Second compound 0.0316 µM, first compound 0.00316 µM
  viability, T/C: 105%
Second compound 0.0316 µM, first compound 0.01 µM
  viability, T/C: 95.1%
[1]
  viability, T/C: 84%
[2]
  viability, T/C: 91.8%
Second compound 0.1 µM, first compound 0.000316 µM
  viability, T/C: 105%
Second compound 0.1 µM, first compound 0.001 µM
  viability, T/C: 110%
Second compound 0.1 µM, first compound 0.00316 µM
  viability, T/C: 97.5%
Second compound 0.1 µM, first compound 0.01 µM
  viability, T/C: 92.1%
[7]
  viability, T/C: 116%
[8]
  viability, T/C: 114%
Second compound 0.316 µM, first compound 0.000316 µM
  viability, T/C: 101%
Second compound 0.316 µM, first compound 0.001 µM
  viability, T/C: 93.8%
Second compound 0.316 µM, first compound 0.00316 µM
  viability, T/C: 103%
Second compound 0.316 µM, first compound 0.01 µM
  viability, T/C: 107%
[13]
  viability, T/C: 116%
[14]
  viability, T/C: 69.2%
Second compound 1 µM, first compound 0.000316 µM
  viability, T/C: 91.2%
Second compound 1 µM, first compound 0.001 µM
  viability, T/C: 97.2%
Second compound 1 µM, first compound 0.00316 µM
  viability, T/C: 75.7%
Second compound 1 µM, first compound 0.01 µM
  viability, T/C: 102%
[19]
  viability, T/C: 98.7%
[20]
  viability, T/C: 74.3%
Second compound 3.16 µM, first compound 0.000316 µM
  viability, T/C: 97.3%
Second compound 3.16 µM, first compound 0.001 µM
  viability, T/C: 101%
Second compound 3.16 µM, first compound 0.00316 µM
  viability, T/C: 82.5%
Second compound 3.16 µM, first compound 0.01 µM
  viability, T/C: 83.2%
[25]
  viability, T/C: 99.5%
[26]
  viability, T/C: 88.6%
Second compound 10 µM, first compound 0.000316 µM
  viability, T/C: 97.2%
Second compound 10 µM, first compound 0.001 µM
  viability, T/C: 92.2%
Second compound 10 µM, first compound 0.00316 µM
  viability, T/C: 119%
Second compound 10 µM, first compound 0.01 µM
  viability, T/C: 85.7%
[31]
  viability, T/C: 94.4%
[32]
  viability, T/C: 87.8%

## COc1cc2cc(C(=O)CCC(=O)O)sc2cc1OC + Nc1ccc(C#CCN(C(=O)Cc2ncc(C(F)(F)F)cc2C(F)(F)F)c2ccc(F)cc2)nn1
Second compound 0.0316 µM
  pIC50: < 5.00
Second compound 0.1 µM
  pIC50: < 5.00
Second compound 0.316 µM
  pIC50: < 5.00
Second compound 1 µM
  pIC50: < 5.00
Second compound 3.16 µM
  pIC50: < 5.00
Second compound 10 µM
  pIC50: < 5.00
[1]
  viability, T/C: 119%
[2]
  viability, T/C: 81%
[3]
  viability, T/C: 82.3%
[4]
  viability, T/C: 89.5%
[5]
  viability, T/C: 94.8%
[6]
  viability, T/C: 99.7%
[7]
  viability, T/C: 101%
[8]
  viability, T/C: 87.7%
[9]
  viability, T/C: 84.3%
[10]
  viability, T/C: 127%
[11]
  viability, T/C: 82.2%
[12]
  viability, T/C: 80.6%
[13]
  viability, T/C: 109%
[14]
  viability, T/C: 112%
[15]
  viability, T/C: 104%
[16]
  viability, T/C: 79.8%
[17]
  viability, T/C: 104%
[18]
  viability, T/C: 79.1%
[19]
  viability, T/C: 86.4%
[20]
  viability, T/C: 106%
[21]
  viability, T/C: 102%
[22]
  viability, T/C: 83%
[23]
  viability, T/C: 117%
[24]
  viability, T/C: 90.9%
[25]
  viability, T/C: 105%
[26]
  viability, T/C: 106%
[27]
  viability, T/C: 98.9%
[28]
  viability, T/C: 81.8%
[29]
  viability, T/C: 85.7%
[30]
  viability, T/C: 104%
[31]
  viability, T/C: 82.5%
[32]
  viability, T/C: 83.7%
[33]
  viability, T/C: 86.4%
[34]
  viability, T/C: 102%
[35]
  viability, T/C: 87.5%
[36]
  viability, T/C: 88%

Reference: PubChem BioAssay AID1963853 (Molecular Pharmacology Branch, DTP, NCI, 2024)
